Structures are written as SMILES. Where a SMILES comes first, the peptide text is derived from it.

The text below walks through data of EP0548441A1, “Endothelin antagonists” (Japat Ltd, priority 1991, dated 1993).

For one assay, the target named is T1, ETA receptor (Sus scrofa, UniProt Q29010).
T1 sequence (Q29010 21-427): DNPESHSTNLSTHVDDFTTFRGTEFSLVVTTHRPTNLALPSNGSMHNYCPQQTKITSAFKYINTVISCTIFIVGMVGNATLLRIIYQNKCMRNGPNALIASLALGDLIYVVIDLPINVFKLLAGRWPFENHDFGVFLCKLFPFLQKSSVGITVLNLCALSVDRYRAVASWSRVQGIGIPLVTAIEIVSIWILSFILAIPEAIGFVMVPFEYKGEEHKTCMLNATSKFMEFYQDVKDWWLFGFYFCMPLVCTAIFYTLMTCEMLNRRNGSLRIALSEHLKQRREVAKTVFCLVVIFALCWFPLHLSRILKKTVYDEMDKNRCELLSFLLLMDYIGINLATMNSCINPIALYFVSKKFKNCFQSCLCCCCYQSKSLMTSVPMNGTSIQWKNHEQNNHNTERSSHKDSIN

A further assay deals with guinea pig trachea. Put plainly: Inhibition of the contraction of guinea pig trachea. The format is cell-based. Particulars: guinea pig tracheal rings. How it is done: The contraction of the guinea pig trachea was measured according to Br. J. Pharmacol. 98, 483, l989, by the following procedure.
Male guinea pigs weighing 350 - 500 g were stunned and bled. The trachea was rapidly removed and placed in an oxygenated (95% O₂ , 5% CO₂) Krebs solution. After removal of the adherent fat and connective tissues, the trachea was cut into 2 mm wide rings. The two rings were tied together, end to end, placed in a 30 ml organ bath and connected to an isometric force-transducer under an initial tension of 1.0 g.

Description for ETA receptor: Porcine lung was homogenized with a Kinematica Polytron homogenizer (Lucern, Switzerland) three times at top speed for each 30 sec in 9 volumes of ice-cold 0.25 M sucrose solution containing 20 mM Tris-HCl (pH 7.4), 0.2 mM phenylmethylsulfonyl fluoride, 1 µM leupeptin, 1 µM pepstatin, 0.1 mM EDTA, and 0.5 mM EGTA. After centrifugation of the homogenate at 1,000 x g for 10 min at 4°C, the supernatant was centrifuged again at 20,000 x g for 20 min. The resulting pellet was washed three times as described above and used as a membrane source. The membrane was stocked in aliquots at -80°C until use.
ET-3 in the absence and presence of various amounts of nonlabeled ligands in a total volume of 1 ml of 20 mM HEPES (pH 7), 145 mM NaCl, 5 mM KCl, 3 mM MgCl₂ , 1 mM EGTA, 1 mg/ml bovine serum albumin, and 0.2 mg/ml bacitracin. […] The radioactivity in membrane pellet was measured in a gamma counter. Nonspecific binding was defined as membrane-associated radioactivity in the presence of saturating concentrations of ET(l00 nM). […] Total binding was always less than l5% of the total radioactivity added.
The specific binding site for ETs in the plasma membrane of porcine lung was detected. The binding to the ETA receptor was determined with [¹²⁵I]ET-1 in the presence of 1 nM unlabeled ET-3 and the binding to the ETB receptor was determined with [¹²⁵I]ET-3 alone. […]

In turn, `CC[C@H](C)[C@H](NC(=O)[C@H](CC(=O)O)NC(=O)[C@H](CC(C)C)NC(=O)[C@H](Cc1c[nH]cn1)NC(=O)[C@H](C)NC(=O)[C@H](Cc1ccccc1)NC(=O)[C@H](Cc1ccc(O)cc1)NC(=O)[C@@H](NC(=O)[C@H](C)NC(=O)[C@H](CCC(=O)O)NC(=O)[C@H](CCCCN)NC(=O)[C@H](CC(=O)O)NC(C)=O)C(C)C)C(=O)N[C@H](C(=O)N[C@@H](Cc1c[nH]c2ccccc12)C(=O)O)[C@@H](C)CC` [Compound (II)] (Ac-DKEAVYFAHLDIIW-OH) gave a Ki on ETA receptor of 450 nM. Further, the “inhibition of ET-3-induced contraction of the trachea” value in the assay on guinea pig trachea (100 nM, added 5 min prior to the addition of ET-3) is reported as “significantly inhibited”.

On to `CC[C@H](C)[C@H](NC(=O)[C@H](CC(=O)O)NC(=O)[C@H](CC(C)C)NC(=O)[C@H](Cc1c[nH]cn1)NC(=O)[C@@H]1CSSC[C@H](N)C(=O)N[C@@H]([C@@H](C)O)C(=O)N[C@H]2CSSC[C@H](NC(=O)[C@H](CCC(=O)O)NC(=O)[C@H](CCCCN)NC(=O)[C@H](CC(=O)O)NC(=O)[C@H](CCCCN)NC(=O)[C@H](Cc3ccc(O)cc3)NC(=O)[C@H]([C@@H](C)O)NC(=O)[C@H](Cc3ccccc3)NC2=O)C(=O)N[C@@H](C(C)C)C(=O)N[C@@H](Cc2ccc(O)cc2)C(=O)N[C@@H](Cc2ccc(O)cc2)C(=O)N1)C(=O)N[C@H](C(=O)N[C@@H](Cc1c[nH]c2ccccc12)C(=O)O)[C@@H](C)CC` [ET-3, endothelin-3, reference compound], for which the “contraction of the trachea” value in the assay on guinea pig trachea (organ bath, high KCl (60 mM) as reference standard) was “caused a contraction of the trachea in a concentration dependent manner”.
